The results in this text go back to ChEMBL document CHEMBL1133841 (Bioorg Med Chem Lett, 2001).

Test [1] concerns the target T1, Serine-threonine protein phosphatase 2A regulatory subunit (Gallus gallus, UniProt Q8AWE3).
T1 sequence (Q8AWE3 whole entry): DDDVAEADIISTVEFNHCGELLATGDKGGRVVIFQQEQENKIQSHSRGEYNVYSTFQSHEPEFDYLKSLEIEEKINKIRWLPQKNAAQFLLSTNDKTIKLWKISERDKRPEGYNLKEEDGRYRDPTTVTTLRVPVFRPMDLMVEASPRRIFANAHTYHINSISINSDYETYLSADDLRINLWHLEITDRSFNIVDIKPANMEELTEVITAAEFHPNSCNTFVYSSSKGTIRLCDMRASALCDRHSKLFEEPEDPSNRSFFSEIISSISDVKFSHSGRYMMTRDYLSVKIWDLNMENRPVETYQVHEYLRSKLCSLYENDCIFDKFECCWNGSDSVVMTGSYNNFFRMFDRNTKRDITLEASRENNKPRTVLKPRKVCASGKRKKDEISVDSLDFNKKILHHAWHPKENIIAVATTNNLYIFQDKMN
As to the kind of experiment: Inhibitory concentration against protein phosphatase 2A (PP2A) was determined.

The target of test [2] is T2, Serine-threonine protein phosphatase 2A regulatory subunit (Gallus gallus) (UniProt Q8AWE3).
T2 sequence (whole entry): T1 sequence (Q8AWE3 whole entry)
As to the kind of experiment: Selectivity expressed as the ratio of Protein phosphatase 2A/Protein phosphatase 1 was determined.

The target of test [3] is Serine/threonine-protein phosphatase PP1 catalytic subunit. Nature of the test: Inhibitory concentration against protein phosphatase 1 was determined.
Test [4] in a line: Selectivity expressed as the ratio of PP2A/PP1 was determined.

Compound `O=C(O)[C@@H](Cc1cnc[nH]1)N1C(=O)[C@@H]2[C@H](C1=O)[C@H]1CC[C@@H]2O1` returned an IC50 in test [1] of 0.81 µM.

For the compound `CCOC(=O)C1C(C(=O)O)[C@@H]2CC[C@H]1O2` (stereo not given in full), the Selectivity in test [2] is 6.5. This compound gave an IC50 in test [3] of 2.96 µM.

The compound `CC(C)C[C@H](C(=O)O)N1C(=O)[C@@H]2[C@H](C1=O)[C@H]1CC[C@@H]2O1` returned an IC50 in test [1] of over 1000 µM.

`O=C(O)[C@H](Cc1c[nH]cn1)N1C(=O)[C@@H]2[C@H](C1=O)[C@H]1CC[C@@H]2O1`: the IC50 in test [1] was found to be 1.35 µM.

For `O=C(O)CC[C@H](C(=O)O)N1C(=O)[C@@H]2[C@H](C1=O)[C@H]1CC[C@@H]2O1`, in test [1], half-maximal inhibition (IC50) was put at 32 µM. The Selectivity in test [4] was found to be 3.

In turn, `O=C(O)[C@@H](Cc1ccccc1)N1C(=O)[C@@H]2[C@H](C1=O)[C@H]1CC[C@@H]2O1` displayed an IC50 in test [1] of over 1000 µM.

`O=C(O)[C@@H](Cc1c[nH]c2ccccc12)N1C(=O)[C@@H]2[C@H](C1=O)[C@H]1CC[C@@H]2O1` registered a half-maximal inhibitory concentration (IC50) in test [1] of 157 µM.

The compound `CSC[C@@H](C(=O)O)N1C(=O)[C@@H]2[C@H](C1=O)[C@H]1CC[C@@H]2O1` gave an IC50 in test [1] of over 1000 µM.

In test [1], `O=C(O)[C@H](Cc1ccccc1)N1C(=O)[C@@H]2[C@H](C1=O)[C@H]1CC[C@@H]2O1` had a concentration for half-maximal inhibition (IC50) of over 1000 µM.

On to `C[C@@H](C(=O)O)N1C(=O)[C@@H]2[C@H](C1=O)[C@H]1CC[C@@H]2O1`, for which the IC50 in test [1] was over 1000 µM.

For `O=C(O)[C@H](Cc1c[nH]c2ccccc12)N1C(=O)[C@@H]2[C@H](C1=O)[C@H]1CC[C@@H]2O1`, in test [1], the 50% inhibitory concentration (IC50) amounted to 105 µM.

Compound `C[C@H](C(=O)O)N1C(=O)[C@@H]2[C@H](C1=O)[C@H]1CC[C@@H]2O1` yielded an IC50 in test [1] of 150 µM.

Consider `CC(C)C[C@@H](C(=O)O)N1C(=O)[C@@H]2[C@H](C1=O)[C@H]1CC[C@@H]2O1`, for which the IC50 in test [1] was over 1000 µM.
